According to ChEMBL document CHEMBL4265943, “Design and synthesis of potent dual inhibitors of JAK2 and HDAC based on fusing the pharmacophores of XL019 and vorinostat” (Eur J Med Chem, 2018):

What was measured:
[1] = biological target: Tyrosine-protein kinase JAK2 (Homo sapiens, UniProt O60674); assay: Inhibition of human JAK2 using poly(Glu:Tyr)(4:1) as substrate preincubated for 20 mins followed by [gamma33P]ATP addition measured after 120 mins by ion exchange filter paper method
Histone deacetylase 1 = Histone deacetylase 1 (Homo sapiens, UniProt Q13547); assay: Inhibition of HDAC1 (unknown origin) using Arg-His-Lys-Lys(Ac) as substrate preincubated with enzyme followed by substrate addition for 2 hrs and measured for 1.5 hrs at 15 mins time interval by fluorescence assay
Sequence of Histone deacetylase 1 (Q13547 whole entry): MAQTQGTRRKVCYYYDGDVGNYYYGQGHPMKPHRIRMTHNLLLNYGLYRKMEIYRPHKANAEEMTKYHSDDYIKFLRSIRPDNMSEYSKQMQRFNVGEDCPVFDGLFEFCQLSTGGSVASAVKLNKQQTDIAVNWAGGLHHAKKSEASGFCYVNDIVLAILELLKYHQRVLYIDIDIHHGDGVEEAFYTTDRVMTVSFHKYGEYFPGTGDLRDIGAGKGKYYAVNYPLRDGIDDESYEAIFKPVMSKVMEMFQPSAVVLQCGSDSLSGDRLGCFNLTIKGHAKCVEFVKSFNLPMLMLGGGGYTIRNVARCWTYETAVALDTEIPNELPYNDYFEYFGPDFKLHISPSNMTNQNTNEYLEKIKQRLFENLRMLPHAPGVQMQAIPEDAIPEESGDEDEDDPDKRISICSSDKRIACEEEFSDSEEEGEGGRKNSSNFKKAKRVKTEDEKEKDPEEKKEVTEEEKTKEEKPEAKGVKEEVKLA

[2] = biological target: T1, Protein deacetylase HDAC6 (Homo sapiens, UniProt Q9UBN7); assay: Inhibition of HDAC6 (unknown origin) using Arg-His-Lys-Lys(Ac) as substrate preincubated with enzyme followed by substrate addition for 2 hrs and measured for 1.5 hrs at 15 mins time interval by fluorescence assay
T1 sequence (Q9UBN7 whole entry): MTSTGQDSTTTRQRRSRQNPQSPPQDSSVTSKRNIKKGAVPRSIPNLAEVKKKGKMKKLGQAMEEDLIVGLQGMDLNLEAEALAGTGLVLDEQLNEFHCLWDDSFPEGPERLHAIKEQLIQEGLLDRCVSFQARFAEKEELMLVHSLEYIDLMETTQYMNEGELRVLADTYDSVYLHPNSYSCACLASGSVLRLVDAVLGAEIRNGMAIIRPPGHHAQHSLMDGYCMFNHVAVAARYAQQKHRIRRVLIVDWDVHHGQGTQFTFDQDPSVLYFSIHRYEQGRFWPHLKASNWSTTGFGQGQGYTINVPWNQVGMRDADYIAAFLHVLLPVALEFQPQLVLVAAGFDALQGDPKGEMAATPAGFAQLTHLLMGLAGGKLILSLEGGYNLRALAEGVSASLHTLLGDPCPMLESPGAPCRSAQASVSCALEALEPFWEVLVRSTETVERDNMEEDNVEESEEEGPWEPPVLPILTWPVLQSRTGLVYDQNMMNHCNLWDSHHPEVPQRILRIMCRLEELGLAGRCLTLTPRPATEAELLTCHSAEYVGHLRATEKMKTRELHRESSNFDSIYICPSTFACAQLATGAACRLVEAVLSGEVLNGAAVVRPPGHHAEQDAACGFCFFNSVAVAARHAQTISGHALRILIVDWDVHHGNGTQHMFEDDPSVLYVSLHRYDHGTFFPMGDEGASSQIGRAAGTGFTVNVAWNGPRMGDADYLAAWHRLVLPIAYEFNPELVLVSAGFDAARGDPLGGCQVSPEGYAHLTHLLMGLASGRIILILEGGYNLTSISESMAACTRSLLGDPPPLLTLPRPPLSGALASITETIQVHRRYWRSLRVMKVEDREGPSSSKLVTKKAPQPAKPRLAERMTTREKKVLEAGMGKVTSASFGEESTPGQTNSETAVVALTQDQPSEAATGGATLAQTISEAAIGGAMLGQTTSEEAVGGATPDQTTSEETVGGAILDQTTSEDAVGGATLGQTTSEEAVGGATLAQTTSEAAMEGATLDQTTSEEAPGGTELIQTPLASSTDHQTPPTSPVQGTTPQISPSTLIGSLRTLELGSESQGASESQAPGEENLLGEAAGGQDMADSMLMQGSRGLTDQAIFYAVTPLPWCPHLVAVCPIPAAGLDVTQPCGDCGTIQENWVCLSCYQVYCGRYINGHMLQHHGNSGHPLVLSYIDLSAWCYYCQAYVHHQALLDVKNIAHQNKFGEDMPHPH

HCT-116 = assay: Antiproliferative activity against human HCT116 cells after 72 hrs by MTT assay; format: functional, cell-based; settings: HCT-116, 72 h
MDA-MB-231 = assay: Antiproliferative activity against human MDA-MB-231 cells after 72 hrs by MTT assay; format: functional, cell-based; settings: MDA-MB-231, 72 h
MCF7 = assay: Antiproliferative activity against human MCF7 cells after 72 hrs by MTT assay; format: functional, cell-based; settings: MCF7, 72 h
PC-3 = assay: Antiproliferative activity against human PC3 cells after 72 hrs by MTT assay; format: functional, cell-based; settings: PC-3, 72 h
[3] = Antiproliferative activity against human AC10 cells after 72 hrs by MTT assay; format: cell-based
[4] = Antiproliferative activity against mouse TAMH cells after 72 hrs by MTT assay; format: cell-based
[5] = Selectivity index, ratio of CC50 for human AC10 cells to IC50 for human HCT116 cells; format: toxicity; settings: AC10 cells (CC50) and HCT116 cells (IC50)
[6] = Selectivity index, ratio of CC50 for mouse TAMH cells to IC50 for human HCT116 cells; format: toxicity; settings: TAMH cells (CC50) and HCT116 cells (IC50)
[7] = Selectivity index, ratio of CC50 for human AC10 cells to IC50 for human MDA-MB-231 cells; format: toxicity; settings: AC10 cells (CC50) and MDA-MB-231 cells (IC50)
[8] = Selectivity index, ratio of CC50 for mouse TAMH cells to IC50 for human MDA-MB-231 cells; format: toxicity; settings: TAMH cells (CC50) and MDA-MB-231 cells (IC50)
[9] = Selectivity index, ratio of CC50 for human AC10 cells to IC50 for human MCF7 cells; format: toxicity; settings: AC10 cells (CC50) and MCF7 cells (IC50)
[10] = Selectivity index, ratio of CC50 for mouse TAMH cells to IC50 for human MCF7 cells; format: toxicity; settings: TAMH cells (CC50) and MCF7 cells (IC50)
[11] = Selectivity index, ratio of CC50 for human AC10 cells to IC50 for human PC3 cells; format: toxicity; settings: AC10 cells (CC50) and PC3 cells (IC50)
[12] = Selectivity index, ratio of CC50 for mouse TAMH cells to IC50 for human PC3 cells; format: toxicity; settings: TAMH cells (CC50) and PC3 cells (IC50)
HEL 92.1.7 = assay: cells; format: functional, cell-based; settings: Homo sapiens, HEL 92.1.7, 72 h
Description: Antiproliferative activity against human HEL 92.1.7 cells after 72 hrs by MTT assay

Jurkat = assay: Antiproliferative activity against human Jurkat cells after 72 hrs by MTT assay; format: functional, cell-based
KMS-12-BM = assay: Antiproliferative activity against human KMS-12-BM cells after 72 hrs by MTT assay; format: functional, cell-based
[13] = Antiproliferative activity against human XG6 cells after 72 hrs by MTT assay; format: functional, cell-based; settings: XG6, 72 h
[14] = Selectivity index, ratio of CC50 for human AC10 cells to IC50 for human HEL 92.1.7 cells; format: toxicity; settings: AC10 cells (CC50) and HEL 92.1.7 cells (IC50)
[15] = Selectivity index, ratio of CC50 for mouse TAMH cells to IC50 for human HEL 92.1.7 cells; format: toxicity; settings: TAMH cells (CC50) and HEL 92.1.7 cells (IC50)
[16] = Selectivity index, ratio of CC50 for human AC10 cells to IC50 for human Jurkat cells; format: toxicity; settings: AC10 cells (CC50) and Jurkat cells (IC50)
[17] = Selectivity index, ratio of CC50 for mouse TAMH cells to IC50 for human Jurkat cells; format: toxicity; settings: TAMH cells (CC50) and Jurkat cells (IC50)
[18] = Selectivity index, ratio of CC50 for human AC10 cells to IC50 for human KMS-12-BM cells; format: toxicity; settings: AC10 cells (CC50) and KMS-12-BM cells (IC50)
[19] = Selectivity index, ratio of CC50 for mouse TAMH cells to IC50 for human KMS-12-BM cells; format: toxicity; settings: TAMH cells (CC50) and KMS-12-BM cells (IC50)
[20] = Selectivity index, ratio of CC50 for human AC10 cells to IC50 for human XG6 cells; format: toxicity; settings: AC10 cells (CC50) and XG6 cells (IC50)
[21] = Selectivity index, ratio of CC50 for mouse TAMH cells to IC50 for human XG6 cells; format: toxicity; settings: TAMH cells (CC50) and XG6 cells (IC50)

Sequence of Tyrosine-protein kinase JAK2 (O60674 whole entry): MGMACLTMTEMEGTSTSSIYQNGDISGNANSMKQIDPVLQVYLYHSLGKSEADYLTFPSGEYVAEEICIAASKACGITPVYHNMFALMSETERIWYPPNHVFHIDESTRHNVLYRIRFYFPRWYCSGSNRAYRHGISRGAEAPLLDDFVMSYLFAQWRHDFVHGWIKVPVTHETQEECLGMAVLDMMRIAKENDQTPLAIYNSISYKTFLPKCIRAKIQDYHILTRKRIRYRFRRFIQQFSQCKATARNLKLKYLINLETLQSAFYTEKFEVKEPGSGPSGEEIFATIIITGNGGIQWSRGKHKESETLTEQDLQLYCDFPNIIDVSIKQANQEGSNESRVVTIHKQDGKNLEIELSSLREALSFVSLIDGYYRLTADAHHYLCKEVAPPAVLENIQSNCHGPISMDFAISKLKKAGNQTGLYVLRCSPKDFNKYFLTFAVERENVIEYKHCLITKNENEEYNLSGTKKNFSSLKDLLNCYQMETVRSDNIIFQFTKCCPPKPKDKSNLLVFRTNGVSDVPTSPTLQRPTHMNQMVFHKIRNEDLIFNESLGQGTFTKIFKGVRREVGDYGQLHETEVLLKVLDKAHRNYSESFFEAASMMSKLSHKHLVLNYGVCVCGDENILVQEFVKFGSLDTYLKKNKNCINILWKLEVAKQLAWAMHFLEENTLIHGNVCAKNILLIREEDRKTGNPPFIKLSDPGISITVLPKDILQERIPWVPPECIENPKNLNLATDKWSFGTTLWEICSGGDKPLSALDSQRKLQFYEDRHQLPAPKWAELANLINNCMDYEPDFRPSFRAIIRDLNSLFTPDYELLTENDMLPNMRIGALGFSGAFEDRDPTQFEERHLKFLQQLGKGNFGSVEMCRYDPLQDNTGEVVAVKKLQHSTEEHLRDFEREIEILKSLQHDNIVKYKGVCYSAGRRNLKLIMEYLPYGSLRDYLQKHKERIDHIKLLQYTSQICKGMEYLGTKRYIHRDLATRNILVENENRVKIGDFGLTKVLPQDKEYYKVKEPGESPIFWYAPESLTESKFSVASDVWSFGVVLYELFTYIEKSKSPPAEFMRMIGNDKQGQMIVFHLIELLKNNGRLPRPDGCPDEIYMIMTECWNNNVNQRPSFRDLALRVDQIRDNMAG

Row | Compound | IC50 [1] | IC50 (Histone deacetylase 1) | IC50 [2] | IC50 (HCT-116) | IC50 (MDA-MB-231) | IC50 (MCF7) | IC50 (PC-3) | IC50 (HEL 92.1.7) | IC50 (Jurkat) | CC50 at 72 h [3] | CC50 at 72 h [4] | selectivity ratio [5] | selectivity ratio [6] | selectivity ratio [7] | selectivity ratio [8] | selectivity ratio [9] | selectivity ratio [10] | selectivity ratio [11] | IC50 (KMS-12-BM) | IC50 [13] | further results
1 | CC(=O)Nc1ccc(-c2ccnc(Nc3ccc(OCCCCCCCC(=O)NO)cc3)n2)cc1 | – | 1.7 µM | 0.014 µM | 1.8 µM | 5.33 µM | 5.53 µM | 4.73 µM | 3.92 µM | 3.48 µM | 3.5 µM | 9.33 µM | – | – | – | – | – | – | – | 1.96 µM | 10.2 µM | –
2 | CC(=O)Nc1ccc(-c2ccnc(Nc3cccc(OCCCCCC(=O)NO)c3)n2)cc1 | 0.0034 µM | 0.637 µM | 0.0024 µM | 0.79 µM | 1.24 µM | 2.55 µM | 1.66 µM | 1.83 µM | 1.19 µM | 2.93 µM | 8.86 µM | 3.71 | 11.2 | 2.36 | 7.15 | 1.15 | 3.47 | 1.77 | 0.2 µM | 3.7 µM | selectivity ratio [12]: 5.34; selectivity ratio [14]: 1.61; selectivity ratio [15]: 4.85; selectivity ratio [16]: 1.35; selectivity ratio [17]: 7.45; selectivity ratio [18]: 14.7; selectivity ratio [19]: 44.3; selectivity ratio [20]: 0.79; selectivity ratio [21]: 2.39
3 | CC(=O)Nc1ccc(-c2ccnc(Nc3ccc(OCCCCCC(=O)NO)cc3)n2)cc1 | – | 0.089 µM | 0.0013 µM | 1.15 µM | 1.02 µM | 2.01 µM | 1.51 µM | 1.36 µM | 1.03 µM | 5.74 µM | 7.39 µM | – | – | – | – | – | – | – | 0.07 µM | 1.07 µM | –

The next lines start with results.

Row | IC50 [1] | IC50 (Histone deacetylase 1) | IC50 [2] | IC50 (HCT-116) | IC50 (MDA-MB-231) | IC50 (MCF7) | IC50 (PC-3) | IC50 (HEL 92.1.7) | IC50 (Jurkat) | Compound | CC50 at 72 h [3] | CC50 at 72 h [4] | selectivity ratio [5] | selectivity ratio [6] | selectivity ratio [7] | selectivity ratio [8] | selectivity ratio [9] | selectivity ratio [10] | selectivity ratio [11] | IC50 (KMS-12-BM) | IC50 [13] | further results
4 | 0.00293 µM | 4.58 µM | 0.0097 µM | 18.4 µM | 11.4 µM | 30.8 µM | 32.8 µM | 8.96 µM | 9.99 µM | CC(=O)Nc1ccc(-c2nc(Nc3cccc(OCCCCCCCC(=O)NO)c3)ncc2C)cc1 | 20.1 to 20.7 µM | 9.14 µM | 1.12 | 0.5 | 1.81 | 0.8 | 0.67 | 0.3 | 0.63 | 0.54 µM | 8.3 µM | selectivity ratio [12]: 0.28; selectivity ratio [14]: 2.31; selectivity ratio [15]: 1.02; selectivity ratio [16]: 0.23; selectivity ratio [17]: 0.91; selectivity ratio [18]: 38.3; selectivity ratio [19]: 17; selectivity ratio [20]: 2.49; selectivity ratio [21]: 1.1
5 | 0.017 µM | 1.04 µM | 0.0067 µM | 1.51 µM | 3.61 µM | 1.22 µM | 1.64 µM | 3.34 µM | > 10 µM | CC(=O)Nc1ccc(-c2ccnc(Nc3cccc(OCCCCCCCC(=O)NO)c3)n2)cc1 | > 100 µM | 2.77 µM | > 66.2 | 1.83 | > 27.7 | 0.77 | > 82 | 2.27 | > 61 | 0.68 µM | 7.22 µM | selectivity ratio [12]: 1.69; selectivity ratio [14]: > 30; selectivity ratio [15]: 0.83; selectivity ratio [16]: 3; selectivity ratio [17]: < 0.28; selectivity ratio [18]: > 147; selectivity ratio [19]: 4.07; selectivity ratio [20]: > 13.9; selectivity ratio [21]: 0.38
